Measured values from publication PMC10221837, “Alanine Substitution to Determine the Effect of LR5 and YR6 Rice Peptide Structure on Antioxidant and Anti-Inflammatory Activity” (Nutrients, 2023).
Ends that are not written are not given here.

system: RAW264.7 cells; assay: MTT proliferation and cytotoxicity of peptides (stimulating index); type: cell-based, mouse; conditions: RAW264.7, MTT, 24 h, across 12.5, 25, 50 and 100 μg/mL peptide
Protocol: The MTT colorimetry method was used to determine the effects of original rice peptides and replacement peptides on RAW264.7 cell proliferation, and the toxic effects of these peptides on the cells. RAW264.7 cells were cultured in DMEM high glucose medium containing 10% (v/v) fetal bovine serum (FBS) and 1% (v/v) of penicillin–streptomycin solution (10,000 U/mL of penicillin and 10,000 U/mL of streptomycin). The cells were cultured at 37 °C in a humidified incubator (Boxun Co., Ltd., Shanghai, China) with 5% (v/v) CO2, with sub-culturing every three days.
Briefly, pre-cultured, logarithmic phase cells were inoculated into 96-well plates (with six double wells for each group), at a cell density of 6.0 × 10^4 cells/mL. Then, 200 μL of cell suspension was added into the wells and incubated for 6 h to make the cells adhere to the well wall. After that, different concentrations of samples (12.5, 25, 50, and 100 μg/mL) were added to four of the six corresponding wells for each group. Sterile water and immunoglobulin G (IgG) were used as the blank and positive control groups, respectively. The samples were subsequently incubated in a humidified incubator with 5% (v/v) CO2 at 37 °C for 24 h, and then 20 μL of MTT solution (5 mg/mL) was added to each well and incubated for a further 4 h. Next, the culture medium supernatant was gently removed from the wells, and 150 μL of dimethyl sulfoxide (DMSO) solution was added into the wells, which were shaken for 10 min at room temperature to ensure that the […] was fully dissolved. Then, the solution was immediately detected at 490 nm. The cytotoxicity was evaluated based on the following stimulating index (SI) value Formula (3):(3) SI=OD1/OD0 where OD1 is the absorbance value at 490 nm of the sample group or the IgG group, and OD0 is the absorbance value at 490 nm of the blank group.

**Q.** Which “SI value (stimulating index, OD sample/OD blank)” value does the source give for YGLYPR [YR6] here?
**A.** greater than 1.0

**Q.** With LHKFR [LR5] as the substance, how does the “SI value (stimulating index, OD sample/OD blank)” value read?
**A.** greater than 1.0

**Q.** How did the “SI value (stimulating index, OD sample/OD blank)” value turn out when YGAYPR [YAR6] was run?
**A.** greater than 1.0

**Q.** With YGLAPR [YLR6] as the substance, how does the “SI value (stimulating index, OD sample/OD blank)” value read?
**A.** greater than 1.0

**Q.** Which “SI value (stimulating index, OD sample/OD blank)” value does the source give for LHKAR [LAR5] here?
**A.** greater than 1.0

**Q.** AHKFR [AR5] was tested. Which “SI value (stimulating index, OD sample/OD blank)” value did it give?
**A.** greater than 1.0

**Q.** With AGLYPR [AGR6] as the substance, how does the “SI value (stimulating index, OD sample/OD blank)” value read?
**A.** greater than 1.0

**Q.** Which “SI value (stimulating index, OD sample/OD blank)” value does the source give for YGLYAR [YGR6] here?
**A.** greater than 1.0
